Measured values as given in patent US6723722B1, “Acylhydrazine derivatives, their production and use” (Takeda Chemical Industries, Ltd., priority 1999, dated 2004).

Biological target: human FXa (Homo sapiens, UniProt P00742)
Assay: Human activated coagulation factor X (FXa) inhibiting effect
Format: biochemical
Settings: concentration at which the FXa effect was inhibited by 50%; substrate S-2765, 37° C., absorbance at 405 nm
Procedure: (1) Human Activated Coagulation Factor X (FXa) Inhibiting Effect
Method: A cuvette was charged with 225 μl of 0.05 M tris buffer (pH 8.3) containing 0.145 M sodium chloride and 2 mM calcium chloride, 5 μl of a sample (test compound dissolved in dimethyl sulfoxide) and 10 μl of human FXa (0.3 unit/ml), which were reacted at 37° C. for 10 minutes and then combined with 10 μl of a substrate (3 mM, S-2765) and further reacted at 37° C. for 10 minutes. hen the reaction was terminated by adding 25 μl of 50% aqueous acetic acid, and the change in the absorbance at 405 nm was determined using a spectrophotometer to calculate the concentration at which the FXa effect was inhibited by 50% (IC50)

human FXa, sequence (P00742 235-488 limits assumed): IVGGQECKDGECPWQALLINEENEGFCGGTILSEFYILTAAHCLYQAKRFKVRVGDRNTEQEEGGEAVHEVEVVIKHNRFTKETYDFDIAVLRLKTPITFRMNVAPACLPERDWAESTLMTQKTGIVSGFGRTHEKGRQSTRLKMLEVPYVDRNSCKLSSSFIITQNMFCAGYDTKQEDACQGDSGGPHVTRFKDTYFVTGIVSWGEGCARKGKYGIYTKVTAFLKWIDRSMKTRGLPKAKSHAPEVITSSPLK
human FXa, sequence (P00742 41-179 partner limits assumed): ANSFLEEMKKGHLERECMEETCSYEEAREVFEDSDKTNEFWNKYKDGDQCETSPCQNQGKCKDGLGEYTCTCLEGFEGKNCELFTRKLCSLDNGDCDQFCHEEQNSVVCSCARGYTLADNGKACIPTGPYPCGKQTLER

- IC50: 5.8 nM
SMILES: O=C1CN(S(=O)(=O)C2=Cc3ccc(Cl)cc3OC2)CCN1NC1CCN(c2ccncc2)CC1 [Example 6]
